Data reported in patent US4400199A, “Thiolcarbamate compounds and their use as herbicides” (priority 1981, dated 1983).
Converted amounts (≈) assume the structure as drawn. “And” between values parts separate entries of the source, which are not always exact repeats. Equal entries are not always repeated. Where two headings read alike, the source gives them in different places.

Tests used:
[1] = tested on: barnyard grass (Echinochloa crus-galli); experiment: Experiment 1: herbicidal effects against barnyard grass (pot test, emulsifiable concentrate); assay type: in vivo
[2] = tested on: barnyard grass; experiment: Experiment 2: herbicidal effects against barnyard grass (pot test, granules); assay type: in vivo, Echinochloa crus-galli; settings: 2.5 leaf-stage, 25 days
[3] = tested on: broad-leaf weeds; experiment: Experiment 2: herbicidal effects against broad-leaf weeds (pot test, granules); assay type: in vivo; settings: 25 days
[4] = tested on: Hotarui (Scirpus juncoides); experiment: Experiment 2: herbicidal effects against Hotarui (pot test, granules); assay type: in vivo; settings: 25 days
[5] = tested on: Mizugayatsuri (Cyperus serotinus); experiment: Experiment 2: herbicidal effects against Mizugayatsuri (pot test, granules); assay type: in vivo; settings: 25 days
[6] = Experiment 3: acute toxicity to fish; assay type: in vivo, Black-carp fry; settings: carp, water; for LC50 at 48 h: read-out: Median lethal concentration TLm (48hrs); for LC50 at 96 h: read-out: Median lethal concentration TLm (96hrs)
Experimental: With respect to the compounds according to the present invention and the comparative compounds (Compound 10, Compound 12 and Compound 13), there were conducted tests on acute toxicity to carps.
In 25-liter water tanks made of glass was charged 20 liters of water. 12 Black-carp fry were released to each of the water tanks and bred while feeding for 7 days. Then, the whole quantity of water in each of the tanks was replaced with fresh water, and feeding to the carps was stopped. After three days, a prescribed amount of 1 weight % solution of a test compound in acetone was added to water in the water tank.
The number of survival fish in each tank was counted after 24 hours, 48 hours and 96 hours, successively.
The TLm (median tolerance limit=lethal concentration 50%) was determined by the Doudorff's method (Sewage & Ind. Wastes 23 (1951) 1380-1397).

[7] = Experiment 4: subacute toxicity to fish; assay type: in vivo, 2-year-old carps; settings: carp, water; 0.2 ppm; 3 weeks; read-out: Survival rate after 3 weeks
Experimental: (§1) With respect to the compounds according to the present invention and the comparative compounds listed in Table 4, there were conducted tests on subacute toxicity to 2-year-old carps having an average weight of 20 g.
(§2) Ten 2-year-old carps were released in each of 25-liter water tanks equipped with an air-blowing apparatus and acclimatized to the surroundings while feeding for 10 days. Water in each of the water tanks was continuously replaced with fresh water so that the residence time of water in the water tanks is 6 hours. Each test compound was added to a predetermined quantity of supply water to prepare a 0.2 ppm aqueous solution of each compound, and each of the aqueous solutions was continuously added to the water in the tank. After three weeks, the hematocrit values of all the survival carps were determined. The hematocrit value used herein is intended to mean a volume percentage of erythrocyte contained in the blood.

[8] = tested on: carps; experiment: Experiment 4: subacute toxicity to fish; assay type: in vivo, 2-year-old carps; settings: for Average Hematocrit Value of survival fish / subacute toxicity to carps (in words) / survival of carps (in words) / symptoms of anemia in carps (in words): 0.2 ppm, 3 weeks
Experimental: as §1, §2

[9] = tested on: paddy field weeds; experiment: Experiment 2: herbicidal effects against paddy field weeds, overall; assay type: in vivo; settings: compared with Molinate (Compound 13)
[10] = tested on: rice plants; settings: in vivo
[11] = tested on: rice plants; experiment: Experiment 2: phytotoxicity to rice plants (pot test, granules); settings: for phytotoxicity rice plant: 25 days
[12] = 1.5 leaf-stage of barnyard grass, 150 g/10a., 25 days
[13] = 1.5 leaf-stage of barnyard grass, 300 g/10a., 25 days
[14] = 1.5 leaf-stage of barnyard grass, 600 g/10a., 25 days
[15] = 3 leaf-stage of barnyard grass, 150 g/10a., 25 days
[16] = 3 leaf-stage of barnyard grass, 300 g/10a., 25 days
[17] = 3 leaf-stage of barnyard grass, 600 g/10a., 25 days

Row | Structure (SMILES) | herbicidal activity (barnyard grass) [1, 12] | herbicidal activity (barnyard grass) [1, 13] | herbicidal activity (barnyard grass) [1, 14] | herbicidal activity (barnyard grass) [1, 15] | herbicidal activity (barnyard grass) ([2]; 150 g/10a.) | herbicidal activity (barnyard grass) ([2]; 300 g/10a.) | herbicidal activity (barnyard grass) ([2]; 600 g/10a.) | Herbicidal activity broad-leaf weeds ([3]; 150 g/10a.) | Herbicidal activity broad-leaf weeds ([3]; 300 g/10a.) | Herbicidal activity broad-leaf weeds ([3]; 600 g/10a.) | Herbicidal activity Hotarui (Scirpus juncoides) ([4]; 150 g/10a.) | Herbicidal activity Hotarui (Scirpus juncoides) ([4]; 300 g/10a.) | Herbicidal activity Hotarui (Scirpus juncoides) ([4]; 600 g/10a.) | Herbicidal activity Mizugayatsuri (Cyperus serotinus) ([5]; 150 g/10a.) | Herbicidal activity Mizugayatsuri (Cyperus serotinus) ([5]; 300 g/10a.) | Herbicidal activity Mizugayatsuri (Cyperus serotinus) ([5]; 600 g/10a.) | LC50 at 48 h [6] [µg/mL] | LC50 at 96 h [6] [µg/mL] | survival at 504 h [7] [%] | Average Hematocrit Value of survival fish [8] [%] | other results
1 | CC1CCCCN1C(=O)SCCCCCl (stereo not drawn) [Compound 1, S-(4-chlorobutyl)-(2-methyl)-piperidine-1-carbothioate] | 5 (more than 90%) | 5 (more than 90%) | 5 (more than 90%) | 5 (more than 90%) | 5 (more than 90%) | 5 (more than 90%) | 5 (more than 90%) | 5 (more than 90%) | 5 (more than 90%) | 5 (more than 90%) | 4 (70 to 89%) | 5 (more than 90%) | 5 (more than 90%) | 4 (70 to 89%) | 4 (70 to 89%) | 5 (more than 90%) | 11 (≈ 44 µM) | 10 (≈ 40 µM) | 100 | 30 | herbicidal activity (barnyard grass) [1, 16]: 5 (more than 90%); herbicidal activity (barnyard grass) [1, 17]: 5 (more than 90%)
2 | CC1CCC(C)CN(C(=O)SCCCCl)C1 (stereo not drawn) [Compound 6, S-(3-chloropropyl)-3,6-dimethyl-hexahydro-1H-azepine-1-carbothioate] | 5 (more than 90%) | 5 (more than 90%) | 5 (more than 90%) | 5 (more than 90%) | 5 (more than 90%) | 5 (more than 90%) | 5 (more than 90%) | 4 (70 to 89%) | 5 (more than 90%) | 5 (more than 90%) | 4 (70 to 89%) | 5 (more than 90%) | 5 (more than 90%) | 3 (50 to 69%) | 4 (70 to 89%) | 5 (more than 90%) | 4.4 (≈ 16.7 µM) | 3.7 (≈ 14 µM) | 100 | 34 | herbicidal activity (barnyard grass) [1, 16]: 5 (more than 90%); herbicidal activity (barnyard grass) [1, 17]: 5 (more than 90%)
3 | CC1CCC(C)CN(C(=O)SCCCCCl)C1 (stereo not drawn) [Compound 7, S-(4-chlorobutyl)-3,6-dimethyl-hexahydro-1H-azepine-1-carbothioate] | 5 (more than 90%) | 5 (more than 90%) | 5 (more than 90%) | 5 (more than 90%) | 5 (more than 90%) | 5 (more than 90%) | 5 (more than 90%) | 4 (70 to 89%) | 5 (more than 90%) | 5 (more than 90%) | 3 (50 to 69%) | 5 (more than 90%) | 5 (more than 90%) | 3 (50 to 69%) | 4 (70 to 89%) | 5 (more than 90%) | 2.6 (≈ 9.36 µM) | 2.6 (≈ 9.36 µM) | 100 | 34 | herbicidal activity (barnyard grass) [1, 16]: 5 (more than 90%); herbicidal activity (barnyard grass) [1, 17]: 5 (more than 90%)
4 | CCN(CC)C(=O)SCCCCl [Compound 10, reference compound] | – | – | – | – | 5 (more than 90%) | 5 (more than 90%) | 5 (more than 90%) | 5 (more than 90%) | 5 (more than 90%) | 5 (more than 90%) | 4 (70 to 89%) | 4 (70 to 89%) | 5 (more than 90%) | 4 (70 to 89%) | 4 (70 to 89%) | 5 (more than 90%) | > 20 | 18 (≈ 85.8 µM) | 80 | 16 | herbicidal activity (barnyard grass) ([1]; in vivo): 5 (key: 5: more than 90%; 4: 70 to 89%; 3: 50 to 69%; 2: 30 to 49%; 10 to 29%; less than 10%); herbicidal activity (in words) ([1]; in vivo): sufficient herbicidal activities; subacute toxicity to carps (in words) [8]: high subacute toxicity to carps; survival of carps (in words) [8]: extremely low; symptoms of anemia in carps (in words) [8]: remarkable symptons of anemia; herbicidal activity (in words) [9]: excellent herbicidal activities; phytotoxicity rice plant [10]: 0 (key: 5: more than 90%; 4: 70 to 89%; 3: 50 to 69%; 2: 30 to 49%; 10 to 29%; less than 10%); harmful effects to rice plants (in words) [11]: without harmful effects to rice plants; phytotoxicity rice plant ([11]; 150 g/10a.): 0 (less than 10%); phytotoxicity rice plant ([11]; 300 g/10a.): 0 (less than 10%); phytotoxicity rice plant ([11]; 600 g/10a.): 0 (less than 10%)
5 | CCSC(=O)N1CCCCCC1 [Compound 13, S-ethyl-hexahydro-1H-azepine-1-carbothioate, reference compound] | – | – | – | – | 3 (50 to 69%) | 4 (70 to 89%) | 5 (more than 90%) | 1 (10 to 29%) | 2 (30 to 49%) | 3 (50 to 69%) | 0 (less than 10%) | 1 (10 to 29%) | 2 (30 to 49%) | 0 (less than 10%) | 1 (10 to 29%) | 1 (10 to 29%) | 34 (≈ 182 µM) | – | 50 | 25 | herbicidal activity (barnyard grass) ([1]; in vivo): 5 (key: 5: more than 90%; 4: 70 to 89%; 3: 50 to 69%; 2: 30 to 49%; 10 to 29%; less than 10%) and 4 (key: 5: more than 90%; 4: 70 to 89%; 3: 50 to 69%; 2: 30 to 49%; 10 to 29%; less than 10%) and 3 (key: 5: more than 90%; 4: 70 to 89%; 3: 50 to 69%; 2: 30 to 49%; 10 to 29%; less than 10%); subacute toxicity to carps (in words) [8]: high subacute toxicity to carps; survival of carps (in words) [8]: extremely low; symptoms of anemia in carps (in words) [8]: remarkable symptons of anemia; subacute anemia symptoms in fish (in words) ([8]; general statement): subacute anemia symptoms in fish; phytotoxicity rice plant ([11]; 150 g/10a.): 0 (less than 10%); phytotoxicity rice plant ([11]; 300 g/10a.): 0 (less than 10%); phytotoxicity rice plant ([11]; 600 g/10a.): 2 (30 to 49%)
